Patent publication US20160257986A1, “Bacterial Diagnosis” (SRI INTERNATIONAL, priority 2013, published 2016)

What was measured:
Format in all cases: cell-based
[1] = tested on: P. aeruginosa (ATCC 27853); assay: Simultaneous antibiotic susceptibility (DHR 123) and species identification (anti-P. aeruginosa antibody) by flow cytometry; conditions: dihydrorhodamine 123 5 μM; 3 hour and 4 hour timepoints
Protocol: Cultures of P. aeruginosa (ATCC 27853) were inoculated in 3 ml Mueller-Hinton broth (MHB) with an OD600 of 0.06. After 2 hours at 37 C, the cultures were at OD600 of 0.150. At time =0 hours, a test antibiotic (ciprofloxacin) or vehicle (DMSO) was added to each culture along with dihydrorhodamine 123 at 5 μM final concentration. At 3 hour and 4 hour timepoints,1 mL of the P. aeruginosa cells were centrifuged and resuspended in FACS buffer with a primary anti-Pseudomonas antibody (rabbit polyclonal Anti-Pseudomonas antibody (ab68538, abcam, Cambridge, Mass.)), and incubated for 15 minutes. The tubes were then centrifuged and resuspended in FACS buffer with a secondary antibody (goat anti-rabbit labeled with Cy7 dye) for another 15 minutes. The samples were then run directly on a FACScaliber flow cytometer for analysis.

[2] = tested on: P. aeruginosa (ATCC 27853); assay: MIC of ciprofloxacin against P. aeruginosa; conditions: Pseudomonas aeruginosa, ATCC27853
E. coli (ATCC 25922) = assay: MIC of norfloxacin against E. coli; conditions: Escherichia coli, ATCC25922

SMILES | response of DHR 123 labeling to antibiotic [1] | MIC [2] | MIC (E. coli (ATCC 25922))
O=C(O)c1cn(C2CC2)c2cc(N3CCNCC3)c(F)cc2c1=O [ciprofloxacin] | dose-dependent response | 0.25 µg/mL | –
CCn1cc(C(=O)O)c(=O)c2cc(F)c(N3CCNCC3)cc21 [norfloxacin] | – | – | 0.064 µg/mL
